Measurements taken from patent US4178371A, “Tetrapeptide derivatives” (Reckitt & Colman Products Limited, priority 1977, dated 1979).

Columns and labels:
opiate receptor sites = conditions: isolated guinea pig ileum twitch response, dose response curve compared with Met enkephalin
Text: The test used for the detection of their agonist activity at opiate receptor sites is that employing the transmurally stimulates guinea pig ileum preparation described in Kosterlitz et al., Brit. J. Pharmacol, and Chemotherapy 33. 266-276 (1968). […] Exp. Ther. 125, 237 (1959) and by the rat tail flick test (intravenous administration) according to Jansen et al., Arzneim Forsch. 13, 266 (1963).
In the above mentioned test method of Kosterlitz et al male or female guinea pigs (Duncan Hartley strain) are killed by a blow on the head and a portion of the ileum removed and set up in an isolated organ bath of 50 ml volume. A `twitch` response is produced by low frequency (0.1 Hz) stimulation with 0.5 msec rectilinear pulses. A test compound is dissolved in distilled water to produce a stock solution of concentration 1 mg/ml. Serial dilutions are carried out using Krebs solution to produce concentrations of 10 μg, 1 μg and 0.1 μg/ml. The compound is tested by adding between 0.1-0.3 ml of the solutions to the organ bath. A dose response curve is then drawn and compared with that for Met enkephalin.

mouse = mouse phenyl-quinone anti writhing test of Hendershot et al (H & F); type: in vivo; conditions: i.v.
Text: (§1) J. Pharmacol, and Chemotherapy 33. 266-276 (1968). […] 13, 266 (1963).

rat = rat tail flick test (R.T.F.), intravenous administration; type: in vivo; conditions: hot water 55° as nociceptive stimulus, i.v.
Method: as §1
In the rat tail flick test hot water (maintained at 55°±1°C.) is used as the nociceptive stimulus.

SMILES	G.P.I. Potency (X Met enkephalin) (opiate receptor sites)	H & F ED50 (mouse)	R.T.F. ED50 (rat)
C[C@@H](NC(=O)[C@@H](N)Cc1ccc(O)cc1)C(=O)NCC(=O)N(C)[C@@H](Cc1ccccc1)C(=O)NCCN(C)C [Example 4, L-Tyrosyl-D-alanylglycyl-N-methyl-L-phenylalanine-2-dimethylaminoethylamide]	8.5 X Met enkephalin	0.003 mg/kg	1.4 mg/kg
C[C@@H](NC(=O)[C@@H](N)Cc1ccc(O)cc1)C(=O)NCC(=O)N(C)[C@@H](Cc1ccccc1)C(=O)NCCN [Example 6, L-Tyrosyl-D-alanylglycyl-N-methyl-L-phenylalanine-2-aminoethylamide]	13.0 X Met enkephalin	0.028 mg/kg	0.37 mg/kg
C[C@@H](NC(=O)[C@@H](N)Cc1ccc(O)cc1)C(=O)NCC(=O)N(C)[C@@H](Cc1ccccc1)C(=O)NCCCN(C)C [Example 2, L-Tyrosyl-D-alanylglycyl-N-methyl-L-phenylalanine-3-dimethylaminopropylamide]	7.2 X Met enkephalin	0.28 mg/kg	2.0 mg/kg
CC(=O)NCCNC(=O)[C@H](Cc1ccccc1)NC(=O)CNC(=O)[C@@H](C)NC(=O)[C@@H](N)Cc1ccc(O)cc1 [Example 1, L-Tyrosyl-D-alanylglycyl-L-phenylalanin-2-acetamidoethylamide]	2.6 X Met enkephalin	0.01 mg/kg	
C[C@@H](NC(=O)[C@@H](N)Cc1ccc(O)cc1)C(=O)NCC(=O)N(C)[C@@H](Cc1ccccc1)C(=O)NCCCC(=O)N(C)c1ccccc1 [Example 19, HTyrDAlaGlyMePheNH(CH2)3 CONMePh]	23.2 X Met enkephalin		
C[C@@H](NC(=O)[C@@H](N)Cc1ccc(O)cc1)C(=O)NCC(=O)N(C)[C@@H](Cc1ccccc1)C(=O)NCC[N+](C)(C)[O-] [Example 22, HTyrDAlaGlyMePheNH(CH 2)2 N(O)Me2]	6.5 X Met enkephalin		
